Among the data in ChEMBL document CHEMBL4376834, “Discovery of 4H-Chromen-4-one Derivatives as a New Class of Selective Rho Kinase (ROCK) Inhibitors, which Showed Potent Activity in ex Vivo Diabetic Retinopathy Models” (J Med Chem, 2019) are IC50 values, retold here.

A value given as a limit tells only on which side of the number the result lay.

Assay [1] is described as follows: Inhibition of human PKA using Kemptide as substrate incubated for 40 mins in presence of [gamma-33P]ATP by radiometric scintillation counting analysis.
The target in assay [2] is Rho-associated protein kinase 1 (Homo sapiens, UniProt Q13464). Put plainly: Inhibition of recombinant human ROCK1 (17 to 535 residues) using […] as substrate incubated for 40 mins in presence of [gamma-33P]ATP and 10 uM ATP by radiometric scintillation counting analysis.
Chain of Rho-associated protein kinase 1 (Q13464 whole entry, the tested form may be a part): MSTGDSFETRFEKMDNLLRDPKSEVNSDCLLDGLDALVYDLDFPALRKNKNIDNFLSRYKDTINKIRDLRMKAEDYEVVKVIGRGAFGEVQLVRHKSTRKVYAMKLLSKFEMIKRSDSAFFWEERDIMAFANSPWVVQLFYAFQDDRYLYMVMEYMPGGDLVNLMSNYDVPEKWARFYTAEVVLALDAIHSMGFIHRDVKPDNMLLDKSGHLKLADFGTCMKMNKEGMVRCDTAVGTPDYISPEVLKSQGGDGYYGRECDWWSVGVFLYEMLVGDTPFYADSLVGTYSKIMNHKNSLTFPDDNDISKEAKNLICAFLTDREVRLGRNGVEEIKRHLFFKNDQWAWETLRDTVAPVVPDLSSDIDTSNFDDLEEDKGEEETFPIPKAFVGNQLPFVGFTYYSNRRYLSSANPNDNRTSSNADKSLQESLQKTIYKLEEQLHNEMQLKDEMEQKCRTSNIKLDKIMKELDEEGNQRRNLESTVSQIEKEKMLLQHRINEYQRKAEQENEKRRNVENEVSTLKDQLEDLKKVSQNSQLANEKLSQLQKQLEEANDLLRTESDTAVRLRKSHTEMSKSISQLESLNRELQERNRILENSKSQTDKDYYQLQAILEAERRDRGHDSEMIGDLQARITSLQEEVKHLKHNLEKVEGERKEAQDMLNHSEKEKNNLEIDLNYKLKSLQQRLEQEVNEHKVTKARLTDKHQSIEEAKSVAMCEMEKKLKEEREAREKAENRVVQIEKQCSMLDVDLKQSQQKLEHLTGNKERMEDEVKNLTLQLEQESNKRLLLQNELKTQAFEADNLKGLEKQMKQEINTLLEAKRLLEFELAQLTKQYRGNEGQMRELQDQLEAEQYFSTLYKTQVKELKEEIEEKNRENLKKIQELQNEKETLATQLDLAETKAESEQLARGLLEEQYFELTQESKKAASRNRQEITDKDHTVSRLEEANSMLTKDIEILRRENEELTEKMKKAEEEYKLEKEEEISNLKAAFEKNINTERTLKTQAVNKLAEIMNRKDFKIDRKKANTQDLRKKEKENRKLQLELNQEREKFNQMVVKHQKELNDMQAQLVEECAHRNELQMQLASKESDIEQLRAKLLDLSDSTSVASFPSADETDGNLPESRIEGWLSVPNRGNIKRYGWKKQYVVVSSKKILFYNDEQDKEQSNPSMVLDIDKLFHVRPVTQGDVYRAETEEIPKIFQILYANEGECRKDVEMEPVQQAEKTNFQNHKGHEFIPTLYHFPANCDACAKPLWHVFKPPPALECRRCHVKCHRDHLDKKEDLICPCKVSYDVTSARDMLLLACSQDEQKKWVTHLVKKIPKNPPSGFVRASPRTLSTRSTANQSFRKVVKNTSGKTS
Assay [3] deals with Rho-associated protein kinase 2 (Homo sapiens, UniProt O75116). Put plainly: Inhibition of recombinant human ROCK2 (11 to 552 residues) using KEAKEKRQEQIAKR as substrate incubated for 40 mins in presence of [gamma-33P]ATP and 10 uM ATP by radiometric scintillation counting analysis.
Chain of Rho-associated protein kinase 2 (O75116 whole entry, the tested form may be a part): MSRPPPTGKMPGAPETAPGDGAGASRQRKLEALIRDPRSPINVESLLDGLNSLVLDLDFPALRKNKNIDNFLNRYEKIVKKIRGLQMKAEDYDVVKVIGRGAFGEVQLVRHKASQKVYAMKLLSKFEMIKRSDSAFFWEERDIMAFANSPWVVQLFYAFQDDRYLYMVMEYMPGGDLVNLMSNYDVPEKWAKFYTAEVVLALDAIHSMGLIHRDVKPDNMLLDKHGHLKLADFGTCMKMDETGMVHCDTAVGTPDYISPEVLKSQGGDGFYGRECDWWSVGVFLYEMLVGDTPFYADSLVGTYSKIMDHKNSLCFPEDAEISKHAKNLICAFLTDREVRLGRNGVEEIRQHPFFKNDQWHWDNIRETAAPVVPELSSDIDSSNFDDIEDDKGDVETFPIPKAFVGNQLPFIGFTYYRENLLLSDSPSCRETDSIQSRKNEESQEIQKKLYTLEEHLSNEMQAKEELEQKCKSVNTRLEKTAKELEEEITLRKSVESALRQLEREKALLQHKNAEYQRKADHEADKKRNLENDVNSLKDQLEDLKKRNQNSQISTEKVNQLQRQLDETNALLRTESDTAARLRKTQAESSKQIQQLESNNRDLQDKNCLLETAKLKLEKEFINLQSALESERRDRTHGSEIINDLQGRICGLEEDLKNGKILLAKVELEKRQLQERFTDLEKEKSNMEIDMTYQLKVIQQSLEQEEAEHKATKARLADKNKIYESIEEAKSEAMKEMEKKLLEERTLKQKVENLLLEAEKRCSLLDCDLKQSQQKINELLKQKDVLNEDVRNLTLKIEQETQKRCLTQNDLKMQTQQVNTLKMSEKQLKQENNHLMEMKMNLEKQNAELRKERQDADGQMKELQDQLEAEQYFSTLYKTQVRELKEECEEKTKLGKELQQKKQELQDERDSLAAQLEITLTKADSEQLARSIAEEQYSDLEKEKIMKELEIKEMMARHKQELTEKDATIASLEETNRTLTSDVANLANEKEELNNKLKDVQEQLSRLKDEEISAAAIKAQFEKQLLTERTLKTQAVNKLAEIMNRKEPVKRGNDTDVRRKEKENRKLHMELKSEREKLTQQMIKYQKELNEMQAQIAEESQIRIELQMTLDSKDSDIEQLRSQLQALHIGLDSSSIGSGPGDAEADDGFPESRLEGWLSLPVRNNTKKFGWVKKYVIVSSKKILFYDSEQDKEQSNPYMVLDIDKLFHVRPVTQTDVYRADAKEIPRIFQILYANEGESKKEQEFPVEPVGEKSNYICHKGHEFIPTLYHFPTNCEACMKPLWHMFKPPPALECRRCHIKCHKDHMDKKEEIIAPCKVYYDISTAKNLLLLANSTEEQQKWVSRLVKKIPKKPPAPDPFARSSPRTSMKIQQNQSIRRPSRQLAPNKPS

As for `Cc1ccc(C(=O)Nc2cccc(NC(=O)COc3ccc4c(=O)ccoc4c3)c2)cc1`, the figures for the IC50 in assay [1], in assay [2] and in assay [3] were more than 10 µM, 0.183 µM and 0.022 µM, respectively.
The matching figures for `CC(=O)Nc1cccc(NC(=O)COc2ccc3c(=O)ccoc3c2)c1`: more than 10 µM, 2.5 µM and 0.136 µM.
Take `CCCC(=O)Nc1cccc(NC(=O)COc2ccc3c(=O)ccoc3c2)c1`: the IC50 (commonly the concentration that inhibits the measured activity by half) in assay [1] is more than 10 µM; in assay [2] it was 1.43 µM; in assay [3], 0.176 µM.
On to `CN(C)c1ccc(C(=O)Nc2cccc(NC(=O)COc3ccc4c(c3)OCCO4)c2)cc1`, for which the 50% inhibitory concentration (IC50) in assay [1], in assay [2] and in assay [3] was more than 10 µM throughout.
For the compound `O=C(COc1ccc2c(=O)ccoc2c1)Nc1cccc(NC(=O)c2ccc([N+](=O)[O-])cc2)c1`, the concentration for half-maximal inhibition (IC50) in assay [1] worked out at 9.35 µM; in assay [2], 0.067 µM; in assay [3], 0.015 µM.
For the compound `Cc1ccc(NC(=O)COc2ccc3c(=O)ccoc3c2)cc1NC(=O)c1ccc(N(C)C)cc1`, the results for the concentration for half-maximal inhibition (IC50) in assay [1], in assay [2] and in assay [3] were more than 10 µM, 1.04 µM and 0.169 µM, respectively.
The matching figures for `COc1cc(OCC(=O)Nc2cccc(NC(=O)c3ccc(N(C)C)cc3)c2)ccc1C=O`: more than 10 µM, 3.74 µM and 0.306 µM.
